Assay results as given in DBAASP.
Values after ≈ are worked out from the molar mass of the structure shown.

Columns and labels:
Assay in all cases: ≥ marks a high value that may be exact or a test limit, other limits are often not marked, values filed in µg/mL are converted to µM
Staphylococcus aureus = tested on: Staphylococcus aureus
Bacillus cereus = tested on: Bacillus cereus
Escherichia coli = tested on: Escherichia coli
[1] = tested on: Staphylococcus epidermidis ATCC 12228
[2] = tested on: Enterococcus faecalis ATCC 29212
Escherichia coli UB1005 = tested on: Escherichia coli UB1005
[3] = tested on: Salmonella enterica subsp. enterica serovar Typhimurium C77-31
[4] = tested on: Salmonella enterica subsp. enterica serovar Pullorum C79-13
[5] = tested on: Salmonella enterica subsp. enterica serovar Typhimurium ATCC 14028
[6] = tested on: Pseudomonas aeruginosa ATCC 27853
Bacillus subtilis = tested on: Bacillus subtilis
[7] = tested on: Escherichia coli DH5alpha
[8] = tested on: Staphylococcus aureus ATCC 25923
[9] = tested on: Staphylococcus aureus ATCC 29213
[10] = tested on: Escherichia coli ATCC 25922
[11] = tested on: Staphylococcus aureus USA 300

CC(C)C[C@H](NC(=O)[C@H](CCCCN)NC(=O)[C@H](Cc1ccccc1)NC(=O)[C@@H](NC(=O)[C@@H](NC(=O)CNC(=O)[C@H](CC(C)C)NC(=O)[C@@H](N)Cc1ccccc1)C(C)C)C(C)C)C(=O)N[C@@H](C)C(=O)N[C@H](C(=O)N[C@@H](CCCCN)C(=O)N[C@H](C(=O)N[C@@H](Cc1ccccc1)C(=O)N1CCC[C@H]1C(=O)N[C@@H](C)C(=O)N[C@H](C(=O)N[C@@H](Cc1ccccc1)C(=O)NCC(=O)N[C@@H](CCCCN)C(=O)N[C@H](C(=O)O)C(C)C)C(C)C)C(C)C)C(C)C [FLGVVFKLAVKVFPAVFGKV]
MIC (Staphylococcus aureus): > 118 µM
MIC (Bacillus cereus): ≥ 118 µM
MIC (Escherichia coli): > 118 µM

CC[C@H](C)[C@H](NC(=O)[C@@H](NC(=O)[C@@H](NC(=O)[C@H](CO)NC(=O)[C@@H]1CCCN1C(=O)[C@H](CCCCN)NC(=O)CNC(=O)CNC(=O)[C@H](CCCCN)NC(=O)[C@@H](NC(=O)[C@H](CO)NC(=O)[C@H](Cc1ccccc1)NC(=O)[C@@H](N)C(C)C)C(C)C)C(C)C)C(C)C)C(=O)N[C@@H](CCCCN)C(=O)N[C@H](C(=O)N[C@H](C(=O)N[C@H](C(=O)N[C@@H](C)C(=O)N[C@@H](CO)C(=O)N[C@H](C(=O)O)[C@@H](C)O)C(C)C)C(C)C)C(C)C [VFSVKGGKPSVVIKVVVAST]
MIC (Bacillus cereus): ≥ 128 µM
MIC (Escherichia coli): > 128 µM

CC(C)C[C@H](NC(=O)CNC(=O)[C@H](CCCCN)NC(=O)[C@@H](NC(=O)[C@H](CC(C)C)NC(=O)[C@@H](NC(=O)[C@H](Cc1ccccc1)NC(=O)[C@H](Cc1ccccc1)NC(=O)[C@H](CCCCN)NC(=O)[C@H](CCCCN)NC(=O)[C@H](C)NC(=O)[C@@H](NC(=O)[C@@H](N)C(C)C)C(C)C)C(C)C)C(C)C)C(=O)N[C@@H](C)C(=O)N1CCC[C@H]1C(=O)N[C@H](C(=O)N[C@@H](CC(C)C)C(=O)N[C@@H](CO)C(=O)N1CCC[C@H]1C(=O)N[C@@H](CO)C(=O)O)C(C)C [VVAKKFFVLVKGLAPVLSPS]
MIC (Bacillus cereus): ≥ 122 µM
MIC (Escherichia coli): > 122 µM

CC[C@H](C)[C@H](NC(=O)[C@H](CCSC)NC(=O)[C@@H](NC(=O)[C@H](CCCCN)NC(=O)[C@H](CO)NC(=O)CNC(=O)[C@@H](NC(=O)[C@@H](NC(=O)[C@H](CCCCN)NC(=O)[C@@H](NC(=O)[C@@H]1CCCN1C(=O)[C@H](CO)NC(=O)[C@H](CCCCN)NC(=O)[C@H](CC(C)C)NC(=O)[C@@H]1CCCN1C(=O)[C@@H](NC(=O)[C@H](CCCN=C(N)N)NC(=O)[C@@H](N)CO)C(C)C)C(C)C)[C@@H](C)CC)C(C)C)C(C)C)C(=O)N[C@@H](Cc1ccccc1)C(=O)N[C@@H](C)C(=O)O [SRVPLKSPVKIVGSKVMIFA]
MIC (Bacillus cereus): ≥ 119 µM
MIC (Escherichia coli): > 119 µM

C[C@H](NC(=O)[C@@H]1CCCN1C(=O)CNC(=O)[C@H](CO)NC(=O)[C@H](CCCN=C(N)N)NC(=O)CNC(=O)[C@@H](NC(=O)[C@@H](N)Cc1cnc[nH]1)[C@@H](C)O)C(=O)N[C@H](C(=O)NCC(=O)N[C@@H](Cc1cnc[nH]1)C(=O)N[C@@H](CO)C(=O)NCC(=O)N[C@@H](Cc1cnc[nH]1)C(=O)N[C@@H](CO)C(=O)N[C@@H](CO)C(=O)N[C@H](C(=O)N[C@@H](Cc1cnc[nH]1)C(=O)NCC(=O)N[C@@H](CO)C(=O)O)[C@@H](C)O)[C@@H](C)O [HTGRSGPATGHSGHSSTHGS]
MIC (Bacillus cereus): ≥ 134 µM
MIC (Escherichia coli): > 134 µM

CC(C)C[C@H](NC(=O)[C@@H](N)Cc1ccccc1)C(=O)NCC(=O)N[C@@H](CCCCN)C(=O)N[C@H](C(=O)N[C@@H](Cc1ccccc1)C(=O)N[C@@H](CCCCN)C(=O)N[C@@H](CCCCN)C(=O)N[C@@H](C)C(=O)N[C@H](C(=O)N[C@@H](CCCCN)C(=O)N[C@H](C(=O)N[C@@H](Cc1ccccc1)C(=O)N1CCC[C@H]1C(=O)N[C@@H](C)C(=O)N[C@H](C(=O)N[C@@H](Cc1ccccc1)C(=O)NCC(=O)N[C@@H](CCCCN)C(=O)N[C@H](C(=O)O)C(C)C)C(C)C)C(C)C)C(C)C)C(C)C [FLGKVFKKAVKVFPAVFGKV]
MIC (Staphylococcus aureus): 116 µM (≈ 256 µg/mL)
MIC (Bacillus cereus): ≥ 116 µM
MIC (Escherichia coli): 14.5 µM (≈ 32 µg/mL)

CC[C@H](C)[C@H](NC(=O)[C@H](CCCCN)NC(=O)[C@H](CCCN=C(N)N)NC(=O)[C@H](CC(C)C)NC(=O)[C@H](Cc1ccccc1)NC(=O)[C@H](CCCN=C(N)N)NC(=O)CNC(=O)[C@H](Cc1ccccc1)NC(=O)[C@@H](N)CCCN=C(N)N)C(=O)N[C@@H](CCCN=C(N)N)C(=O)N[C@@H](CCCN=C(N)N)C(=O)N[C@@H](Cc1ccccc1)C(=O)N[C@@H](CCCN=C(N)N)C(=O)N1CCC[C@H]1C(=O)N[C@@H](CCCCN)C(N)=O [RFGRFLRKIRRFRPK]
MIC [1]: 16 µM (≈ 32.5 µg/mL)
MIC [2]: 16 µM (≈ 32.5 µg/mL)
MIC (Escherichia coli UB1005): 16 µM (≈ 32.5 µg/mL)
MIC [3]: ≥ 32 µM
MIC [4]: 16 µM (≈ 32.5 µg/mL)
MIC [5]: 32 µM (≈ 65 µg/mL)
MIC [6]: 32 µM (≈ 65 µg/mL)

CC[C@H](C)[C@H](NC(=O)[C@H](Cc1ccccc1)NC(=O)[C@@H](NC(=O)[C@H](Cc1ccc(O)cc1)NC(=O)[C@H](CCCN=C(N)N)NC(=O)[C@H](CCCCN)NC(=O)[C@H](CCCN=C(N)N)NC(=O)[C@H](CCCCN)NC(=O)[C@H](Cc1c[nH]c2ccccc12)NC(=O)[C@H](CC(C)C)NC(=O)[C@@H](NC(=O)[C@@H](N)Cc1ccc(O)cc1)C(C)C)[C@@H](C)CC)C(=O)O [YVLWKRKRYIFI]
MIC (Bacillus subtilis): 3.56 µM (≈ 6 µg/mL)
MIC [7]: 3.56 µM (≈ 6 µg/mL)
MIC [6]: 8.9 µM (≈ 15 µg/mL)
MIC [8]: 1.78 µM (≈ 3 µg/mL)

CC[C@H](C)[C@H](NC(=O)[C@H](CO)NC(=O)[C@H](CCC(N)=O)NC(=O)[C@H](CC(C)C)NC(=O)[C@H](C)NC(=O)[C@H](CC(=O)O)NC(=O)[C@H](CCCCN)NC(=O)[C@H](CCCCN)NC(=O)[C@H](CC(C)C)NC(=O)CN)C(=O)N[C@H](C(=O)N[C@@H](CCCCN)C(=O)N[C@@H](CCCCN)C(=O)N[C@@H](C)C(=O)N[C@@H](CCC(N)=O)C(=O)N[C@@H](CC(C)C)C(=O)N[C@@H](C)C(=O)N[C@@H](C)C(=O)N[C@@H](CCSC)C(=O)NCC(=O)O)C(C)C [GLKKDALQSIVKKAQLAAMG]
MIC (Bacillus cereus): ≥ 124 µM
MIC (Escherichia coli): > 124 µM

CC(C)C[C@H](NC(=O)[C@@H](NC(=O)[C@@H](NC(=O)[C@@H](N)CC(C)C)C(C)C)[C@@H](C)O)C(=O)N[C@H](C(=O)N[C@@H](Cc1ccccc1)C(=O)N[C@H](C(=O)NCC(=O)NCC(=O)NCC(=O)N[C@@H](Cc1c[nH]c2ccccc12)C(=O)N[C@@H](CCCCN)C(=O)N[C@@H](Cc1c[nH]c2ccccc12)C(=O)N[C@@H](CCCCN)C(=O)N[C@@H](Cc1c[nH]c2ccccc12)C(=O)N[C@@H](CCCCN)C(=O)N[C@@H](CC(N)=O)C(=O)NCC(=O)N[C@@H](CCCCN)C(=O)N[C@@H](Cc1c[nH]c2ccccc12)C(=O)N[C@@H](CCCCN)C(=O)N[C@@H](Cc1c[nH]c2ccccc12)C(=O)N[C@@H](CCCCN)C(=O)N[C@@H](Cc1c[nH]c2ccccc12)C(=O)O)C(C)C)C(C)C [LVTLVFVGGGWKWKWKNGKWKWKW]
MIC [1]: 32 µM (≈ 96.6 µg/mL)
MIC [2]: 4 µM (≈ 12.1 µg/mL)
MIC [9]: 32 µM (≈ 96.6 µg/mL)
MIC [3]: ≥ 128 µM
MIC [4]: 16 µM (≈ 48.3 µg/mL)
MIC [10]: 4 µM (≈ 12.1 µg/mL)

CC[C@H](C)[C@H](NC(=O)[C@H](CCCN=C(N)N)NC(=O)[C@H](CCC(N)=O)NC(=O)[C@@H](NC(=O)[C@@H](NC(=O)[C@H](CCC(N)=O)NC(=O)[C@H](CCC(N)=O)NC(=O)[C@H](Cc1ccccc1)NC(=O)CN)[C@@H](C)CC)C(C)C)C(=O)N[C@@H](CCCCN)C(=O)N[C@@H](CC(=O)O)C(=O)N[C@@H](Cc1ccccc1)C(=O)N[C@@H](CC(C)C)C(=O)N[C@@H](CCC(N)=O)C(=O)N[C@@H](CC(N)=O)C(=O)N[C@@H](CC(C)C)C(=O)N[C@H](C(N)=O)C(C)C [GFQQIVQRIKDFLQNLV]
MIC [11]: 12.5 µM (≈ 25.6 µg/mL)

CC(C)C[C@H](NC(=O)[C@@H](N)Cc1ccccc1)C(=O)NCC(=O)N[C@H](C(=O)N[C@H](C(=O)N[C@@H](Cc1ccccc1)C(=O)N[C@@H](CCCCN)C(=O)NCC(=O)N[C@@H](C)C(=O)N[C@@H](CO)C(=O)N[C@@H](CCCCN)C(=O)N[C@H](C(=O)N[C@@H](Cc1ccccc1)C(=O)N1CCC[C@H]1C(=O)N[C@@H](C)C(=O)N[C@H](C(=O)N[C@H](C(=O)NCC(=O)N[C@@H](CCCCN)C(=O)N[C@H](C(=O)O)C(C)C)C(C)C)C(C)C)C(C)C)C(C)C)C(C)C [FLGVVFKGASKVFPAVVGKV]
MIC (Staphylococcus aureus): > 125 µM
MIC (Bacillus cereus): ≥ 125 µM
MIC (Escherichia coli): > 125 µM
